Data on ten compounds can be found in ChEMBL document CHEMBL1201862, “PubChem BioAssay data set” (2004).

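How tested: cells in 96-well plates exposed to compound for 48 hours at five concentrations. At the GI50, growth is halved.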 Active and inactive are the calls of the source. Cut-off read from the data, not from the text of the source: active = GI50 up to about 1.1 µM and inactive = higher.

One may read the GI50 as the concentration that inhibits growth by half.

Among the test systems are ACHN; HCC 2998; HCT-15; HOP-92; HT-29; IGROV-1; K562; MOLT-4; SF-268; SF-295; SK-MEL-28; SN12C; SNB-19; SR; TK-10; UACC-62; NCI/ADR-RES; OVCAR-3; Hs-578T; MDA-N.
Common to all, as to test: DTP human tumour cell line panel, 48 h

In the case of `[O-][S+]1c2ccccc2N=C(c2ccc3ccccc3c2)CC1c1ccccc1` (centres undefined), the GI50 was 16.4 µM (inactive) in the assay with ACHN; 21.9 µM (inactive) in the assay with HCC 2998; 16.4 µM in the assay on HCT-15; 35.6 µM (inactive) in the assay on HOP-92; 17.4 µM (inactive) in the assay on HT-29; 16.9 µM (inactive) in the assay on IGROV-1. Besides, the GI50 in the assay on K562 was 23.7 µM (inactive); in the assay with MOLT-4 it was 31 µM (inactive); with SF-268 it was 18.2 µM (inactive); with SF-295, 19.9 µM (inactive); with SK-MEL-28 it was 43 µM (inactive); in the assay on SN12C, 34.4 µM (inactive). Besides, the GI50 in the assay on SNB-19 was 17.9 µM (inactive); in the assay on SR it was 17.9 µM (inactive); in the assay on TK-10, 22.8 µM (inactive); in the assay on UACC-62, 36.6 µM (inactive).

`COC(=O)C(NC(=O)c1ccccc1)C(c1ccc(Cl)cc1)P(=O)(OC)OC` (centres undefined): the GI50 in the assay on ACHN was > 100 µM (inactive); in the assay on HCC 2998 it was > 100 µM (inactive); with HCT-15 it was more than 100 µM; with HOP-92, > 100 µM (inactive); in the assay with HT-29 it was > 100 µM (inactive); in the assay on IGROV-1 it was > 100 µM (inactive). In addition, the GI50 is > 100 µM (inactive) with K562; > 100 µM (inactive) in the assay with MOLT-4; > 100 µM (inactive) in the assay on SF-268; 97.5 µM (inactive) in the assay with SF-295; > 100 µM (inactive) in the assay with SK-MEL-28; > 100 µM (inactive) in the assay on SN12C. Moreover, the GI50 in the assay on SNB-19, in the assay on SR, in the assay with TK-10 and in the assay on UACC-62 was > 100 µM (inactive) each time.

Turning to `Cc1ccc2nc3c(C(=O)NCCN(C)C)cccc3cc2c1`, the GI50 is 3.8 µM (inactive) in the assay with HCC 2998; 0.834 µM in the assay with HCT-15; 1.75 µM (inactive) in the assay with HOP-92; 1.14 µM (inactive) in the assay with HT-29; 2.23 µM (inactive) in the assay on IGROV-1; 2.36 µM (inactive) with K562. Further, the GI50 with MOLT-4 is 0.49 µM (active); with NCI/ADR-RES, 1.13 µM (inactive); in the assay on OVCAR-3, 2 µM (inactive); in the assay on SF-268, 1.26 µM (inactive); in the assay on SF-295, 1.95 µM (inactive); in the assay with SK-MEL-28 it was 2.51 µM (inactive). Moreover, the GI50 in the assay with SN12C was 1.76 µM (inactive); in the assay on SNB-19, 2.04 µM (inactive); with UACC-62, 2.35 µM (inactive).

For `COC(=O)Nc1nc2cc(C(=O)c3ccc[nH]3)ccc2[nH]1`, the GI50 in the assay with HCC 2998 was 2.55 µM (inactive); in the assay on HCT-15, 0.319 µM; with HT-29, 0.415 µM (active); in the assay with Hs-578T, 1.54 µM (inactive); in the assay on IGROV-1, 1.7 µM (inactive); in the assay on K562, 0.387 µM (active). The 50% growth inhibitory concentration (GI50) was 0.134 µM (active) in the assay on MDA-N; 0.575 µM (active) in the assay on MOLT-4; 0.465 µM (active) in the assay with NCI/ADR-RES; 2.04 µM (inactive) with SF-268; 0.759 µM (active) in the assay with SF-295; 0.711 µM (active) with SK-MEL-28. Further, the GI50 with SN12C is 1.15 µM (inactive); with SNB-19, 1.19 µM (inactive); with TK-10, 1.67 µM (inactive); with UACC-62, 0.425 µM (active).

For `CN1C2CCC1C(CO)C(=O)C2` (centres undefined), the GI50 was 38.6 µM (inactive) with ACHN; > 100 µM (inactive) in the assay on HCC 2998; 24.9 µM in the assay with HCT-15; > 100 µM (inactive) in the assay with HOP-92; > 100 µM (inactive) in the assay on Hs-578T; > 100 µM (inactive) in the assay on IGROV-1. The GI50 was 24.6 µM (inactive) with K562; 18.2 µM (inactive) with MOLT-4; > 100 µM (inactive) in the assay on NCI/ADR-RES; > 100 µM (inactive) with OVCAR-3; > 100 µM (inactive) with SF-268; > 100 µM (inactive) in the assay on SF-295. In addition, the GI50 in the assay on SK-MEL-28 was > 100 µM (inactive); in the assay on SR, 26.1 µM (inactive); in the assay on TK-10, 22.9 µM (inactive); in the assay with UACC-62, > 100 µM (inactive).

Regarding `CN1C2CC(=O)CC1[C@H](O)[C@@H]2O`, the GI50 is > 100 µM (inactive) in the assay on HCC 2998; more than 100 µM with HCT-15; > 100 µM (inactive) in the assay on HT-29; > 100 µM (inactive) in the assay on K562; > 100 µM (inactive) with MDA-N; > 100 µM (inactive) with MOLT-4. Besides, the GI50 in the assay on NCI/ADR-RES, in the assay with OVCAR-3, with SF-268, with SF-295, with SK-MEL-28 and in the assay with SN12C was > 100 µM (inactive) in each case. Besides, the GI50 in the assay on SNB-19, with SR and with TK-10 was > 100 µM (inactive) in each case.

As to `CCOc1ccc(O)cc1[P+](c1ccccc1)(c1ccccc1)c1ccccc1`, the GI50 in the assay on ACHN was 16.2 µM (inactive); in the assay with HCC 2998, 2.82 µM (inactive); in the assay on HT-29, 2.85 µM (inactive); in the assay on K562, 1.49 µM (inactive); with OVCAR-3, 0.804 µM (active); in the assay with SF-268 it was 5.2 µM (inactive). In addition, the GI50 is 4.5 µM (inactive) in the assay with SF-295; 4.47 µM (inactive) in the assay on SK-MEL-28; 3.13 µM (inactive) in the assay on SN12C; 3.33 µM (inactive) in the assay on SNB-19; 3.43 µM (inactive) with TK-10; 3.79 µM (inactive) in the assay with UACC-62.

On to `Cc1nc2c(cc1C(=O)N/N=C/c1ccc([N+](=O)[O-])cc1)c(=O)n(C)c(=O)n2C`, for which the GI50 was > 100 µM (inactive) in the assay with ACHN; > 100 µM (inactive) in the assay on HCC 2998; more than 100 µM in the assay with HCT-15; > 100 µM (inactive) with HT-29; 31.1 µM (inactive) with Hs-578T; 42.4 µM (inactive) with IGROV-1. Further, the GI50 in the assay on K562 is > 100 µM (inactive); in the assay on MDA-N, > 100 µM (inactive); in the assay with MOLT-4, > 100 µM (inactive); in the assay with NCI/ADR-RES, > 100 µM (inactive); in the assay with OVCAR-3, > 100 µM (inactive); in the assay with SF-268, 25.4 µM (inactive). In addition, the GI50 with SF-295 was 54.1 µM (inactive); with SK-MEL-28 it was > 100 µM (inactive); in the assay with SN12C, > 100 µM (inactive); in the assay with SNB-19, 21.4 µM (inactive); in the assay with TK-10, 54.3 µM (inactive); in the assay with UACC-62, > 100 µM (inactive).

Turning to `COc1ccc2c3c1O[C@H]1C[C@@H](O)C=C[C@@]31CCN(C)C2` [GALANTAMINE], the GI50 was > 150 µM (inactive) with HCC 2998; more than 150 µM with HCT-15; > 150 µM (inactive) in the assay with HOP-92; > 150 µM (inactive) in the assay on HT-29; > 150 µM (inactive) in the assay on IGROV-1; > 150 µM (inactive) in the assay on K562. For the same compound, the GI50 in the assay on MOLT-4 was > 150 µM (inactive); in the assay on NCI/ADR-RES, > 150 µM (inactive); in the assay with OVCAR-3, > 150 µM (inactive); in the assay on SF-268, 87.7 µM (inactive); with SF-295 it was > 150 µM (inactive); in the assay on SK-MEL-28 it was > 150 µM (inactive). Moreover, the GI50 in the assay on SN12C, in the assay on SNB-19 and in the assay on UACC-62 was > 150 µM (inactive) in each case.

For `O=c1cc[nH]c(=O)[nH]1` [URACIL], the GI50 in the assay with HCC 2998 is 322 µM (inactive); with HCT-15, 798 µM; in the assay with HOP-92, 311 µM (inactive); with HT-29 it was 509 µM (inactive); with IGROV-1, > 828 µM (inactive); with K562 it was 465 µM (inactive). Further, the GI50 in the assay with MOLT-4 was 550 µM (inactive); in the assay with NCI/ADR-RES, > 562 µM (inactive); in the assay on OVCAR-3, 667 µM (inactive); in the assay on SF-268, 578 µM (inactive); with SF-295 it was 382 µM (inactive); in the assay with SK-MEL-28, 327 µM (inactive). Besides, the results for the GI50 in the assay with SN12C, in the assay with SNB-19 and in the assay with UACC-62 were 502 µM (inactive), 431 µM (inactive) and 330 µM (inactive), respectively.
